Measured values from patent publication US4581451A, “Preparation of di- and tri-substituted xanthine compounds” (priority 1980, dated 1986).
Read-outs that look alike come from different tables or passages of the source.

How the values were obtained:
[1] = behavioural study in rats: anxiety induced by a new environment (rearings and movements); assay type: in vivo, male Sprague-Dawley rats; settings: for ED50: Rattus norvegicus, 0.5 h
From the text: The xanthines obtained in accordance with the preceding Examples were the subject of a behavioural study in rats as a function of the anxiety induced by a new environment. In rats, anxiety is manifested by rearing the animal on its two hind paws, whilst locomotive activity is expressed by their movements.
A state of anxiety is induced by confronting "naive" male Sprague-Dawley (Iffa-Credo, France) rats weighing from 260 to 300 g with a new environment in the form of cages of Macrolon (30×25 cm) which are situated in a sound-proofed air-conditioned room (22° C./50% relative humidity).
The number of rearings and movements is automatically determined by means of infrared photoelectric cells which only emit electrical pulses for the active movements of the animal and not for its static movements, such as those of its head and tail, for reasons of reproducibility. These photoelectric cells scan the cages at two different levels so as to distinguish the standing-up movements from the other movements. The number of rearings and movements is counted by the two rows of photoelectric cells, memorised and read out using a printer in accordance with a pre-established program.
The tested compound in solution in the form of its sodium salt is orally administered by oesophagus probe (the reference administration being formed by 6 ml/kg of distilled water) 30 minutes before the animals are placed in the cages. The number of rearings and movements is determined during the 15 minutes after they have been put into the cages in relation to the effect generated by the reference administration.
The ED 50 dose (expressed in mg/kg), i.e. the quantity of substance required to bring about a 50% variation in the motive activity in relation to the reference administration, is determined from the development of the effects of the tested substances on the number of movements and rearings as a function of the progressive doses administered expressed as a percentage of the movements and rearings counted for the reference administration.
The gradients of the regression curves corresponding to the movements and to the rearings are compared by recording the value of the gradient of the movement curve on the abscissa (d) and the value of the gradient of the rearing curve on the ordinant (r) of a system of rectungular axes.
The ratio of the gradient of the movements to that of the rearings is also determined, enabling the specificity of effect of a given substance on the anxiety state to be assessed.
The effect of a substance is determined by its position relative to the curve d=r of gradient=1. The substances situated on this curve have a similar effect on the rearings and movements, being sedatives with a non-specific effect (S.N.). For these compounds, the ED 50 value quoted corresponds to the mean taken from the two regression curves.
These compounds are sedatives of anxiolytic character (S.A.). In this case, the ED 50 value is calculated from the regression curve of the rearings.

[2] = base screening: diuretic in male rats; assay type: in vivo; settings: Rattus norvegicus, read-out: minimal effective dose producing a significant response, diuretic (c)
From the text: (c) diuretic in male rats, as determined in accordance with W. L. Lipschitz, Z Hadidian and A. Kerpcsar, JPET, Vol. 79, pages 97-110, 1943

[3] = base screening: anti-allergic in male and female rats; assay type: in vivo; settings: for minimal effective dose: Rattus norvegicus, read-out: minimal effective dose producing a significant response, anti-allergic (d)
From the text: (d) anti-allergic in male and female rats, as determined in accordance with J. Goose and A. M. J. N. Blair, Immunol., Vol. 16, pages 749-760, 1969

[4] = base screening: bronchodilatory in vitro
From the text: (e) bronchodilatory in vitro as determined in accordance with F. P. Luduena et al., Arch. int. Pharmacodyn, Vol. 111, pages 392-400, 1957

[5] = base screening: anti-histamine in vitro
From the text: (f) anti-histamine in vitro as determined in accordance with R. Magnus, Arch f.d., ges. physiol., Vol. 102, pages 123-151, 1904.

[6] = catalepsy induced by haloperidol in rats; assay type: in vivo; settings: p.o.
From the text: (§1) The compounds of Examples 1, 4, 11 and 12 were subjected to behavioural tests in accordance with "predictability and specificity of behaviour screening tests for neuroleptics", P. Worms and K. G. Lloyd, […], Vol. 5, pages 445-450, 1979, comprising: […]

[7] = analgesia induced by pentobarbital in mice; assay type: in vivo; settings: p.o.
From the text: as §1

[8] = climbing behaviour induced by apomorphine in mice; assay type: in vivo; settings: p.o.
From the text: as §1

[9] = stereotype behaviour induced by apomorphine in rats; assay type: in vivo; settings: p.o.
From the text: as §1

[10] = rectal temperature in mice; assay type: in vivo; settings: p.o.
From the text: as §1

[11] = hypomotility induced by amphetamine in rats; assay type: in vivo; settings: p.o.
From the text: as §1

[12] = in vivo; settings: rat, po, solution in DMSO
From the text: (b) Determination of the acute toxicity LD 50 in male and female rats in solution is DMSO (reference DMSO alone) in accordance with C.

[13] = in vivo; settings: mouse, po, solution in DMSO
[14] = oral, sodium salt in solution, 30 min before test, 15 min count, S.N.: mean of two regression curves, S.A.: from rearings curve, read-out: ED 50
[15] = female, read-out: LD 50, rats female
[16] = male, read-out: LD 50, rats male
[17] = female, read-out: LD 50, mice female
[18] = male, read-out: LD 50, mice male

Work on `C=CCn1c(=O)c2[nH]c(C)nc2n(CCCC)c1=O` [Example 1, 1-allyl-3-butyl-8-methyl xanthine] yielded an ED50 ([1]; po) of 0.14 mg/kg, a minimal effective dose [2] of 5 mg/kg and a minimal effective dose [3] of 2.5 mg/kg. The “minimal effective concentration producing a significant response, bronchodilatory (e)” value [4] was 100 µg/mL, the “minimal effective concentration producing a significant response, anti-histamine (f)” value [5] was 100 µg/mL and the “catalepsy induced by haloperidol” value [6] was “potentialisation at 1 mg/kg p.o”. The “analgesia induced by pentobarbital” value [7] was “potentialisation at 0.5 mg/kg p.o”, the “climbing behaviour induced by apomorphine” value (“climbing behaviour induced” below) [8] was “inhibition at 1 mg/kg p.o” and the “stereotype behaviour induced by apomorphine” value (“stereotype behaviour induced” below) [9] was “no antagonism up to 8 mg/kg p.o”. The rectal temperature [10] was “hypothermal effect at 2 mg/kg p.o” and the “hypomotility induced by amphetamine” value [11] was “antagonism at 0.5 mg/kg p.o”.
In the case of `C=CCn1c(=O)c2[nH]cnc2n(CCCC)c1=O` [Example 2, 1-allyl-3-butyl xanthine], the ED50 [1, 14] was 1.6 mg/kg, the LD50 [12, 15] was > 200 mg/kg and the LD50 [12, 16] was > 200 mg/kg. The minimal effective dose [2] was 10 mg/kg, the minimal effective dose [3] was 10 mg/kg and the “minimal effective concentration producing a significant response, bronchodilatory (e)” value [4] was 25 µg/mL. For the same compound, the “minimal effective concentration producing a significant response, anti-histamine (f)” value [5] was 100 µg/mL.
For `C=CCn1c(=O)c2[nH]cnc2n(CC(C)C)c1=O` [Example 3, 1-allyl-3-isobutyl xanthine], the ED50 [1, 14] was 0.98 mg/kg, the minimal effective dose [2] was 5 mg/kg and the “minimal effective dose producing a significant response, anti-allergic (d)” value [3] was “no effect”. For the same compound, the “minimal effective concentration producing a significant response, bronchodilatory (e)” value [4] was “no effect” and the “minimal effective concentration producing a significant response, anti-histamine (f)” value [5] was 200 µg/mL.
In the case of `C=CCn1c(=O)c2[nH]c(C)nc2n(CC(C)C)c1=O` [Example 4, 1-allyl-3-isobutyl-8-methyl xanthine], the ED50 [1, 14] was 0.25 mg/kg, the Effect ([1]; sedative/anxiolytic class) was “S.N” and the LD50 [13, 17] was 49 mg/kg. For the same compound, the LD50 [13, 18] was 79 mg/kg, the LD50 [12, 15] was 17 mg/kg and the LD50 [12, 16] was 23 mg/kg. For the same compound, the minimal effective dose [2] was 20 mg/kg, the minimal effective dose [3] was 50 mg/kg and the “minimal effective concentration producing a significant response, bronchodilatory (e)” value [4] was “no effect”. For the same compound, the “minimal effective concentration producing a significant response, anti-histamine (f)” value [5] was “no effect”, the “catalepsy induced by haloperidol” value [6] was “potentialisation at 1 mg/kg p.o” and the “analgesia induced by pentobarbital” value [7] was “potentialisation at 0.5 mg/kg p.o”. For the same compound, the “climbing behaviour induced” value [8] was “inhibition at 1 mg/kg p.o”, the “stereotype behaviour induced” value [9] was “no antagonism up to 8 mg/kg p.o” and the rectal temperature [10] was “hypothermal effect at 2 mg/kg p.o”. The “hypomotility induced by amphetamine” value [11] was “antagonism at 0.5 mg/kg p.o”.
In the case of `C=CCn1c(=O)c2[nH]c(CC)nc2n(CCCC)c1=O` [Example 5, 1-allyl-3-butyl-8-ethyl xanthine], the ED50 [1, 14] was 6.24 mg/kg, the minimal effective dose [2] was 2.5 mg/kg and the “minimal effective dose producing a significant response, anti-allergic (d)” value [3] was “no effect”. For the same compound, the “minimal effective concentration producing a significant response, bronchodilatory (e)” value [4] was 5 µg/mL and the “minimal effective concentration producing a significant response, anti-histamine (f)” value [5] was 100 µg/mL.
Compound `C=CCn1c(=O)c2[nH]c(C)nc2n(CCC)c1=O` [Example 6, 1-allyl-3-propyl-8-methyl xanthine] has an ED50 [1, 14] of 0.27 mg/kg.
With `C=CCn1c(=O)c2[nH]c(C)nc2n(CCC(C)C)c1=O` [Example 7, 1-allyl-3-isopentyl-8-methyl xanthine] the ED50 [1, 14] was 1.03 mg/kg.
Work on `CCCCn1c(=O)n(CC)c(=O)c2[nH]c(C)nc21` [Example 8, 1-ethyl-3-butyl-8-methyl xanthine] yielded an ED50 [1, 14] of 1.02 mg/kg.
With `CCCCn1c(=O)n(CC)c(=O)c2[nH]c(CC)nc21` [Example 9, 1,8-diethyl-3-butyl xanthine] the ED50 [1, 14] was 2.38 mg/kg, the minimal effective dose [2] was 5 mg/kg and the “minimal effective dose producing a significant response, anti-allergic (d)” value [3] was “no effect”. The “minimal effective concentration producing a significant response, bronchodilatory (e)” value [4] was 25 µg/mL and the “minimal effective concentration producing a significant response, anti-histamine (f)” value [5] was 50 µg/mL.
`C=CCn1c(=O)n(CCCC)c(=O)c2[nH]c(C)nc21` [Example 10, 1-butyl-3-allyl-8-methyl xanthine] gave an ED50 [1, 14] of 3.95 mg/kg.
`CCCCn1c(=O)n(CCC)c(=O)c2[nH]c(C)nc21` [Example 11, 1-propyl-3-butyl-8-methyl xanthine] gave an ED50 [1, 14] of 0.35 mg/kg, an LD50 [13, 17] of 151 mg/kg and an LD50 [13, 18] of 91 mg/kg. The LD50 [12, 15] was 15 mg/kg, the LD50 [12, 16] was 25 mg/kg and the minimal effective dose [2] was 0.25 mg/kg. For the same compound, the “minimal effective dose producing a significant response, anti-allergic (d)” value [3] was “no effect”, the “minimal effective concentration producing a significant response, bronchodilatory (e)” value [4] was 10 µg/mL and the “minimal effective concentration producing a significant response, anti-histamine (f)” value [5] was 50 µg/mL. For the same compound, the “catalepsy induced by haloperidol” value [6] was “potentialisation at 1 mg/kg p.o”, the “analgesia induced by pentobarbital” value [7] was “potentialisation at 0.5 mg/kg p.o” and the “climbing behaviour induced” value [8] was “inhibition at 1 mg/kg p.o”. For the same compound, the “stereotype behaviour induced” value [9] was “no antagonism up to 8 mg/kg p.o”, the rectal temperature [10] was “hypothermal effect at 2 mg/kg p.o” and the “hypomotility induced by amphetamine” value [11] was “antagonism at 0.5 mg/kg p.o”.
`CCCn1c(=O)c2[nH]c(C)nc2n(CC(C)C)c1=O` [Example 12, 1-propyl-3-isobutyl-8-methyl xanthine] showed an ED50 [1, 14] of 0.25 mg/kg, an LD50 [12, 15] of 19 mg/kg and an LD50 [12, 16] of 28 mg/kg. For the same compound, the “catalepsy induced by haloperidol” value [6] was “potentialisation at 1 mg/kg p.o”, the “analgesia induced by pentobarbital” value [7] was “potentialisation at 0.5 mg/kg p.o” and the “climbing behaviour induced” value [8] was “inhibition at 1 mg/kg p.o”. For the same compound, the “stereotype behaviour induced” value [9] was “no antagonism up to 8 mg/kg p.o”, the rectal temperature [10] was “hypothermal effect at 2 mg/kg p.o” and the “hypomotility induced by amphetamine” value [11] was “antagonism at 0.5 mg/kg p.o”.
For `CCCCn1c(=O)c2[nH]c(C)nc2n(CCC)c1=O` [Example 13, 1-butyl-3-propyl-8-methyl xanthine], the ED50 [1, 14] was 1.05 mg/kg.
`CCCn1c(=O)c2[nH]c(C)nc2n(CCC)c1=O` [Example 14, 1,3-dipropyl-8-methyl xanthine] showed an ED50 [1, 14] of 0.37 mg/kg.
With `Cc1nc2c([nH]1)c(=O)n(CC(C)C)c(=O)n2CC(C)C` [Example 15, 1,3-diisobutyl-8-methyl xanthine] the ED50 [1, 14] was 0.42 mg/kg.
`CCCCn1c(=O)n(C(C)C)c(=O)c2[nH]c(C)nc21` [Example 16, 1-isopropyl-3-butyl-8-methyl xanthine] showed an ED50 [1, 14] of 1.76 mg/kg.
`CNC1=Nc2ccc(Cl)cc2C(c2ccccc2)=[N+]([O-])C1` [chlordiazepoxide, reference compound] gave an ED50 ([1]; po) of 12 mg/kg.
In the case of `CN(C)CCCN1c2ccccc2Sc2ccc(Cl)cc21` [chlorpromazine, reference compound], the ED50 ([1]; po) was 21 mg/kg.
Compound `O=C(CCCN1CCC(O)(c2ccc(Cl)cc2)CC1)c1ccc(F)cc1` [haloperidol, reference compound] has an ED50 ([1]; po) of 1 mg/kg.
With `Cn1c(=O)c2[nH]cnc2n(C)c1=O` [theophylline, reference compound] the action profile ([1]; conclusion from Table 3) was “psychostimulating” and the “effect on the anxiety state” value ([1]; conclusion from Table 3) was “does not have any effect on the anxiety state”.
